Measurements as given in patent US10940139B2, “Compounds that interact with the Ras superfamily for the treatment of cancers, inflammatory diseases, rasopathies, and fibrotic disease” (Shy Therapeutics LLC, priority 2017, dated 2021).

Columns and labels:
[1] = tested on: TNFα production in RAW 264.7 macrophage cell line; experiment: Mouse TNF alpha quantification assay (LPS-stimulated macrophages, ELISA); type: cell-based; conditions: RAW264.7, RAW 264.7 murine leukemia virus transformed macrophage cell lines, LPS stimulation, read-out: TNF-α % Inhibition at 30 μM
[2] = tested on: IL6 production in RAW 264.7 macrophage cell line; experiment: Mouse IL6 quantification assay (LPS-stimulated macrophages, ELISA); type: cell-based; conditions: RAW264.7, RAW 264.7 murine leukemia virus transformed macrophage cell lines, LPS stimulation, read-out: IL-6 % Inhibition at 30 μM

SMILES | inhibition at 30 µM [1] [%] | inhibition at 30 µM [2] [%]
Cn1cnc(-c2nc(O)c3c(-c4ccccc4)c(-c4ccncc4)sc3n2)c1 [drawing 2355] | 1 to 25 | 0
COCCNc1nc(-c2ccccn2)nc(-c2cccc(OCCN(C)C)c2)c1Oc1ccccc1 [drawing 2356] | 1 to 25 | 0
COCCNc1nc(-c2cn(C)cn2)nc2sc(-c3ccncc3)c(-c3ccccc3)c12 [drawing 2357] | 1 to 25 | 51 to 75
COc1nc(-c2cn(C)cn2)nc2sc(-c3ccncc3)c(-c3ccccc3)c12 [drawing 2358] | 1 to 25 | 51 to 75
OCC1(c2ccc(-c3nc(-c4ccccn4)nc(-c4ccc(C5(CO)CC5)cc4)c3Oc3ccccc3)cc2)CC1 [drawing 2359] | 0 | 0
COc1ccc(COC[C@H]2O[C@@H](c3csc4c(=O)[nH]c(-c5ccccn5)nc34)[C@H](O)[C@@H]2O)cc1 [drawing 2360] | 26 to 50 | 1 to 25
OCC1(c2ccc(-c3nc(-c4ccccn4)nc(O)c3Oc3ccccc3)cc2)CC1 [drawing 2361] | 26 to 50 | 0
COCCNc1nc(-c2nccn2C)nc2sc(-c3ccccc3)c(-c3ccccc3)c12 [drawing 2362] | 26 to 50 | 51 to 75
Cn1ccnc1-c1nc(O)c2c(-c3ccccc3)c(-c3ccccc3)sc2n1 [drawing 2363] | 26 to 50 | 1 to 25
Cn1cnc(-c2nc(O)c3c(-c4ccccc4)c(-c4ccc(CNC(=O)OC(C)(C)C)cc4)sc3n2)c1 [drawing 2364] | 0 | 1 to 25
COCCNc1nc(-c2ccccn2)nc2c1c(-c1ccccc1)nn2-c1ccccn1 [drawing 2365] | 51 to 75 | 76 to 100
Oc1nc(-c2ccccn2)nc2c1c(-c1ccccc1)nn2-c1ccccn1 [drawing 2366] | 1 to 25 | 51 to 75
COc1nc(-c2ccccn2)nc2c1c(-c1ccccc1)nn2-c1ccccn1 [drawing 2367] | 76 to 100 | 76 to 100
COCC(C)Nc1nc(-c2ccccn2)nc2sc(-c3ccncc3)c(-c3ccccc3)c12 (stereo not shown) [drawing 2368] | 26 to 50 | 0
Nc1nc(O)c2sc(-c3cccc(C(=O)NC4CCNC4=O)c3)cc2n1 (stereo not shown) [drawing 2369] | 1 to 25 | 1 to 25
Nc1nc(O)c2sc(-c3cccc(C(=O)N4CCC(O)C4)c3)cc2n1 (stereo not shown) [drawing 2370] | 0 | 0
NC(=O)C1CCCN1C(=O)c1cccc(-c2cc3nc(N)nc(O)c3s2)c1 (stereo not shown) [drawing 2371] | 0 | 0
Nc1nc(O)c2sc(-c3cccc(C(=O)NCc4ncc[nH]4)c3)cc2n1 [drawing 2372] | 0 | 0
Nc1nc(O)c2sc(-c3cccc(C(=O)NCc4cccc(O)n4)c3)cc2n1 [drawing 2373] | 0 | 51 to 75
COC(=O)c1nc(-c2ccccn2)nc(O)c1O [drawing 2374] | 0 | 0
Oc1nc(-c2ccccn2)nc2c(-c3ccccc3)c(-c3ccncc3)sc12 [drawing 2375] | 0 | 1 to 25
Cn1cnc(-c2nc(O)c3sc(-c4ccncc4)c(-c4ccccc4)c3n2)c1 [drawing 2376] | 0 | 1 to 25
COCC(C)Nc1nc(-c2ccccn2)nc(C(=O)NCCCc2c[nH]cn2)c1Oc1ccccc1 (stereo not shown) [drawing 2377] | 0 | 1 to 25
Nc1nc(-c2ccccn2)nc(C(=O)NCCc2ccncc2)c1Oc1ccccc1 [drawing 2378] | 0 | 0

SMILES | inhibition at 30 µM [1] [%] | inhibition at 30 µM [2] [%]
COc1nc(-c2ccccn2)nc(Oc2cccc(C(F)(F)F)c2)c1OC [drawing 2379] | 1 to 25 | 1 to 25
Oc1nc(-c2ccccn2)nc2c(Br)c(-c3ccccc3)sc12 [drawing 2380] | 0 | 1 to 25
CC(C)(C)c1sc2c(O)nc(-c3ccccn3)nc2c1Br [drawing 2381] | 1 to 25 | 0
Cc1ccc(-c2cc3nc(-c4ccccn4)nc(O)c3s2)cc1 [drawing 2382] | 1 to 25 | 1 to 25
Oc1nc(-c2ccccn2)nc2cc(-c3ccccc3Cl)sc12 [drawing 2383] | 0 | 26 to 50
COc1c(O)nc(-c2ccccn2)nc1Oc1cccc(C(F)(F)F)c1 [drawing 2384] | 26 to 50 | 1 to 25
Oc1nc(-c2ccccn2)nc(Oc2cccc(C(F)(F)F)c2)c1O [drawing 2385] | 1 to 25 | 1 to 25
Oc1nc(-c2ccccn2)nc2cc(-c3ccc(-c4ccccc4)cc3)sc12 [drawing 2386] | 1 to 25 | 51 to 75
Cc1ccc(-c2csc3c(O)nc(-c4ccccn4)nc23)cc1 [drawing 2387] | 1 to 25 | 0
Oc1nc(-c2ccccn2)nc2cc(-c3ccncc3)sc12 [drawing 2388] | 1 to 25 | 26 to 50
Oc1nc(-c2ccccn2)nc2cc(-c3ccccc3)sc12 [drawing 2389] | 1 to 25 | 26 to 50
COc1ccc(-c2cc3nc(-c4ccccn4)nc(O)c3s2)cc1 [drawing 2390] | 1 to 25 | 0
Oc1nc(-c2ccccn2)nc2cc(-c3cccc(Br)c3)sc12 [drawing 2391] | 1 to 25 | 1 to 25
COc1nc(-c2ccccn2)nc(Oc2cccc(C(F)(F)F)c2)c1O [drawing 2392] | 1 to 25 | 0
COCCN(C)c1nc(-c2nccn2C)nc2sc(-c3ccccc3)c(-c3ccccc3)c12 [drawing 2393] | 76 to 100 | 76 to 100
CC(C)OCCNc1nc(-c2nccn2C)nc2sc(-c3ccccc3)c(-c3ccccc3)c12 [drawing 2394] | 1 to 25 | 1 to 25
Cn1ccnc1-c1nc(NCCOC(F)(F)F)c2c(-c3ccccc3)c(-c3ccccc3)sc2n1 [drawing 2395] | 1 to 25 | 26 to 50
CC(O)CNc1nc(-c2nccn2C)nc2sc(-c3ccccc3)c(-c3ccccc3)c12 (stereo not shown) [drawing 2396] | 0 | 26 to 50
COCCCNc1nc(-c2nccn2C)nc2sc(-c3ccccc3)c(-c3ccccc3)c12 [drawing 2397] | 76 to 100 | 76 to 100
COC1CCN(c2nc(-c3nccn3C)nc3sc(-c4ccccc4)c(-c4ccccc4)c23)C1 (stereo not shown) [drawing 2398] | 76 to 100 | 76 to 100
CCOCCOc1nc(-c2nccn2C)nc2sc(-c3ccccc3)c(-c3ccccc3)c12 [drawing 2399] | 26 to 50 | 1 to 25
CCN(CC)CCOc1nc(-c2nccn2C)nc2sc(-c3ccccc3)c(-c3ccccc3)c12 [drawing 2400] | 76 to 100 | 76 to 100
COCCNc1nc(-c2ccncn2)nc2sc(-c3ccccc3)c(-c3ccccc3)c12 [drawing 2401] | 51 to 75 | 76 to 100
